Data reported in patent US11713338B2, “Cyclic peptides multimers targeting α-4-β-7 integrin” (priority 2016, dated 2023).
pIC50: −log10 of the molar value.

Biological target: T1, recombinant integrin α4β7 (Homo sapiens, UniProt P13612+P26010, DEL724-798)
T1 construct: purchased R&D Systems 5397-A3-050
T1 sequence (P13612 34-970 limits assumed): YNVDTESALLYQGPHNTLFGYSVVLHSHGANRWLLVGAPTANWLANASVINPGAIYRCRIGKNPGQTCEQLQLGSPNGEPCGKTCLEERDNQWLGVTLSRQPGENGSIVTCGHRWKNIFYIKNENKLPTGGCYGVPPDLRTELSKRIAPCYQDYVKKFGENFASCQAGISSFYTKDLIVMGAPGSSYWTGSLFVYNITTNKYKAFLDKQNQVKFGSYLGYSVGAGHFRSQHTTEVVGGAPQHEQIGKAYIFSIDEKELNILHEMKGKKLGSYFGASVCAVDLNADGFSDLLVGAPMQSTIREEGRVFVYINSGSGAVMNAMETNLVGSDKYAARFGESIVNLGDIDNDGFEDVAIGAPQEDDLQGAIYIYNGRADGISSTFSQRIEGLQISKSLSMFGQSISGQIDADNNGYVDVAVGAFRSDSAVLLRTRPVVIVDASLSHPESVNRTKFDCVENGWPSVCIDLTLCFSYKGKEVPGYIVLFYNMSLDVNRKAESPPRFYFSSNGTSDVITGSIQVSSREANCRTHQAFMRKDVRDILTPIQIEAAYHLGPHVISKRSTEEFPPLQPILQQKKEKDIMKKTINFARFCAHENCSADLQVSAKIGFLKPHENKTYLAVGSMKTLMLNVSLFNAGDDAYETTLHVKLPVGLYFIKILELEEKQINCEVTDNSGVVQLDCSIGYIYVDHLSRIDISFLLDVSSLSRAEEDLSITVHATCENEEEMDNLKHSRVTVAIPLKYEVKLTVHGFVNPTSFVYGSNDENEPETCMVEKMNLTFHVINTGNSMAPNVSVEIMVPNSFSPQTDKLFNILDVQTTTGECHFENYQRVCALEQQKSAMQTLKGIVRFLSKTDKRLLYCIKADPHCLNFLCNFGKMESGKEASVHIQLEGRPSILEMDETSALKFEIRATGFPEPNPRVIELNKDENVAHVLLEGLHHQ
T1 sequence (P26010 20-723 limits assumed): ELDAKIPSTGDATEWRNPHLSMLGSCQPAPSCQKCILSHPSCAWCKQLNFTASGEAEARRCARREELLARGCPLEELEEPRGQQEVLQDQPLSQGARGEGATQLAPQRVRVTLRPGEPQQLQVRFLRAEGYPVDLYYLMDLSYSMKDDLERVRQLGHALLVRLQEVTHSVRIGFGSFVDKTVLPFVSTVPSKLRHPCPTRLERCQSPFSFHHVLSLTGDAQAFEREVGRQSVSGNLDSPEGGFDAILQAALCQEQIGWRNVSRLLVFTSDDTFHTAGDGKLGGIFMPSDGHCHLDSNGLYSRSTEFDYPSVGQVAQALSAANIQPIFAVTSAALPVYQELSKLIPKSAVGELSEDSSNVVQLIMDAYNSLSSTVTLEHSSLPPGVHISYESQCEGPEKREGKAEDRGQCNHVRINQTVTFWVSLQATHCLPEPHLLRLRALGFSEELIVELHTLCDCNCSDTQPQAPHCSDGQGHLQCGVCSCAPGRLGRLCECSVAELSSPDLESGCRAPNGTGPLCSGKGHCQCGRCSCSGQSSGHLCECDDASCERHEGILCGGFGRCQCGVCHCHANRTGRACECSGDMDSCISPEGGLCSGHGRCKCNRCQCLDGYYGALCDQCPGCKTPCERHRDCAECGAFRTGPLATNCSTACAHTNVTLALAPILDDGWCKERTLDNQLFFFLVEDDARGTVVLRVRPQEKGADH
Assay: Integrin α4β7—MAdCAM-1 ELISA competition assay
Format: binding
Conditions: for pIC50: read-out: ELISA a4b7 Assay IC50; for ELISA Assay Ratio b1/b7: ratio of a4b1 to a4b7 ELISA IC50

SMILES | pIC50 | ELISA Assay Ratio b1/b7
CCCC[C@H]1NC(=O)[C@H](Cc2ccc(O)cc2)NC(=O)[C@@H]2CCCN2[C@H](C(=O)NC(C)(C)C)[C@H](C)NC(=O)[C@H]([C@@H](C)O)NC(=O)[C@H](CC(=O)O)NC(=O)[C@H](CC(C)C)NC1=O [Compound 155] | 7.27 | 
CC(C)C[C@@H]1NC(=O)CN(C)C(=O)[C@H](Cc2cscn2)NC(=O)[C@@H]2CCCN2[C@H](C(=O)NC(C)(C)C)[C@H](C)NC(=O)[C@H]([C@@H](C)O)NC(=O)[C@H](CC(=O)O)NC1=O [Compound 164] | 6.90 | 
CC(C)C[C@@H]1NC(=O)CNC(=O)[C@H](Cc2ccc(CN)cc2)NC(=O)[C@@H]2CCCN2[C@H](C(=O)NC(C)(C)C)[C@H](C)NC(=O)[C@H]([C@@H](C)O)NC(=O)[C@H](CC(=O)O)NC1=O [Compound 165] | 6.89 | 22.8
C=CCOc1ccc(C[C@@H]2NC(=O)[C@@H]3CCCN3[C@H](C(=O)NC(C)(C)C)[C@H](C)NC(=O)[C@H]([C@@H](C)O)NC(=O)[C@H](CC(=O)O)NC(=O)[C@H](CC(C)C)NC(=O)[C@@H](CO)NC2=O)cc1 [Compound 167] | 6.83 | 13.6
CC(C)C[C@@H]1NC(=O)CN(C)C(=O)[C@H](Cc2csc(-c3cccnc3)n2)NC(=O)[C@@H]2CCCN2[C@H](C(=O)NC(C)(C)C)[C@H](C)NC(=O)[C@H]([C@@H](C)O)NC(=O)[C@H](CC(=O)O)NC1=O [Compound 181] |  | 12.6
CC(C)C[C@@H]1NC(=O)[C@H]2CCCCN2C(=O)[C@@H](Cc2cccc(-c3cccc4ncccc34)c2)NC(=O)[C@@H]2CCCN2[C@H](C(=O)NC(C)(C)C)[C@H](C)NC(=O)[C@H]([C@@H](C)O)NC(=O)[C@H](CC(=O)O)NC1=O [Compound 192] | 6.93 | 
CC(C)C[C@@H]1NC(=O)C[C@H](CCCCN)NC(=O)[C@H](Cc2ccc(O)cc2)NC(=O)[C@@H]2CCCN2[C@H](C(=O)NC(C)(C)C)[C@H](C)NC(=O)[C@H]([C@@H](C)OCc2ccccc2)NC(=O)[C@H](CC(=O)O)NC1=O [Compound 200] | 6.87 | 2.6
CC(C)C[C@@H]1NC(=O)C[C@H](CCCCN)NC(=O)[C@H](Cc2ccc3ccccc3c2)NC(=O)[C@@H]2CCCN2[C@H](C(=O)NC(C)(C)C)[C@H](C)NC(=O)[C@H]([C@@H](C)O)NC(=O)[C@H](CC(=O)O)NC1=O [Compound 203] | 7.26 | 
CC(C)C[C@@H]1NC(=O)C[C@H](CCCCN)NC(=O)[C@H](Cc2ccc(-c3ccccc3)cc2)NC(=O)[C@@H]2CCCN2[C@H](C(=O)NC(C)(C)C)[C@H](C)NC(=O)[C@H]([C@@H](C)O)NC(=O)[C@H](CC(=O)O)NC1=O [Compound 204] | 7.20 | 
CC[C@H](C)[C@@H]1NC(=O)[C@H](CC(=O)O)NC(=O)[C@H](CC(C)C)NC(=O)C[C@H](CCCCN)NC(=O)[C@H](Cc2ccc(CN)cc2)NC(=O)[C@@H]2CCCN2[C@H](C(=O)NC(C)(C)C)[C@H](C)NC1=O [Compound 215] | 7.48 | 12.4
CC[C@H](C)[C@@H]1NC(=O)[C@H](CC(=O)O)NC(=O)[C@H](CC(C)C)NC(=O)C[C@@H](CCCCN)NC(=O)[C@H](Cc2ccccc2)NC(=O)[C@@H]2CCCN2[C@H](C(=O)NC(C)(C)C)[C@H](C)NC1=O [Compound 220] | 7.02 | 18.2
CC(C)C[C@@H]1NC(=O)C[C@H]2CCCN2C(=O)[C@H](Cc2ccc(CN)cc2)NC(=O)[C@@H]2CCCN2[C@H](C(=O)NC(C)(C)C)[C@H](C)NC(=O)[C@H]([C@@H](C)O)NC(=O)[C@H](CC(=O)O)NC1=O [Compound 230] | 6.92 | 
CC(C)C[C@@H]1NC(=O)C[C@H](CCCCN)NC(=O)[C@H](Cc2ccc(CN)cc2)NC(=O)[C@@H]2CCCN2[C@H](C(=O)NC(C)(C)C)[C@H](C)NC(=O)[C@H](C(C)C)NC(=O)[C@H](CC(=O)O)NC1=O [Compound 254] | 7.26 | 33.0
CC(C)C[C@@H]1NC(=O)C[C@H](CCCCN)NC(=O)[C@H](Cc2cccc(I)c2)NC(=O)[C@@H]2CCCN2[C@H](C(=O)NC(C)(C)C)[C@H](C)NC(=O)[C@H]([C@@H](C)O)NC(=O)[C@H](CC(=O)O)NC1=O [Compound 255] | 7.37 | 
COc1ccccc1-c1cccc(C[C@@H]2NC(=O)[C@@H]3CCCN3[C@H](C(=O)NC(C)(C)C)[C@H](C)NC(=O)[C@H]([C@@H](C)O)NC(=O)[C@H](CC(=O)O)NC(=O)[C@H](CC(C)C)NC(=O)C[C@H](CCCCN)NC2=O)c1 [Compound 257] | 7.24 | 
CC(C)C[C@@H]1NC(=O)C[C@H](CCCCN)NC(=O)[C@H](Cc2ccc(-c3ccccc3OC(F)(F)F)cc2)NC(=O)[C@@H]2CCCN2[C@H](C(=O)NC(C)(C)C)[C@H](C)NC(=O)[C@H]([C@@H](C)O)NC(=O)[C@H](CC(=O)O)NC1=O [Compound 262] | 7.10 | 
CC(C)C[C@@H]1NC(=O)C[C@H](CCCCN)NC(=O)[C@H](Cc2ccccc2)N(C)C(=O)[C@@H]2CCCN2[C@H](C(=O)NC(C)(C)C)[C@H](C)NC(=O)[C@H]([C@@H](C)O)NC(=O)[C@H](CC(=O)O)NC1=O [Compound 264] | 6.93 | 
CC(C)C[C@@H]1NC(=O)C[C@H](CCCCN)NC(=O)[C@H](Cc2cccc(-c3ccc(F)c(F)c3)c2)NC(=O)[C@@H]2CCCN2[C@H](C(=O)NC(C)(C)C)[C@H](C)NC(=O)[C@H]([C@@H](C)O)NC(=O)[C@H](CC(=O)O)NC1=O [Compound 267] | 7.36 | 
Cc1cccc(C)c1-c1ccccc1C[C@@H]1NC(=O)[C@@H]2CCCN2[C@H](C(=O)NC(C)(C)C)[C@H](C)NC(=O)[C@H]([C@@H](C)O)NC(=O)[C@H](CC(=O)O)NC(=O)[C@H](CC(C)C)NC(=O)C[C@H](CCCCN)NC1=O [Compound 272] | 7.39 | 58.1
Cc1noc(C)c1-c1ccccc1C[C@H]1NC(=O)[C@@H]2CCCN2[C@H](C(=O)NC(C)(C)C)[C@H](C)NC(=O)[C@H]([C@@H](C)O)NC(=O)[C@H](CC(=O)O)NC(=O)[C@H](CC(C)C)NC(=O)C[C@H](CCCCN)NC1=O [Compound 276] | 6.87 | 106.2
COc1cccc(Cl)c1-c1ccccc1C[C@@H]1NC(=O)[C@@H]2CCCN2[C@H](C(=O)NC(C)(C)C)[C@H](C)NC(=O)[C@H]([C@@H](C)O)NC(=O)[C@H](CC(=O)O)NC(=O)[C@H](CC(C)C)NC(=O)C[C@H](CCCCN)NC1=O [Compound 279] | 7.00 | 
CC(C)C[C@@H]1NC(=O)C[C@H](CCCCN)NC(=O)C2(CCc3ccccc3C2)NC(=O)[C@@H]2CCCN2[C@H](C(=O)NC(C)(C)C)[C@H](C)NC(=O)[C@H]([C@@H](C)O)NC(=O)[C@H](CC(=O)O)NC1=O (stereo partly drawn) [Compound 282] | 6.92 | 
CC(C)C[C@@H]1NC(=O)C[C@H](CCCCN)NC(=O)[C@H](Cc2ccccc2-c2cc(C(F)(F)F)ccc2C(F)(F)F)NC(=O)[C@@H]2CCCN2[C@H](C(=O)NC(C)(C)C)[C@H](C)NC(=O)[C@H]([C@@H](C)O)NC(=O)[C@H](CC(=O)O)NC1=O [Compound 286] | 7.19 | 
CC(C)C[C@@H]1NC(=O)C[C@H](CCCCN)NC(=O)[C@H](Cc2ccccc2-c2cc(C(F)(F)F)ccc2C(F)(F)F)NC(=O)[C@@H]2CCCN2[C@H](C(=O)NC(C)(C)C)[C@H](C)NC(=O)[C@H]([C@@H](C)O)NC(=O)[C@H](CC(=O)O)NC1=O [Compound 287] | 7.08 | 
CC(C)C[C@@H]1NC(=O)C[C@H](CCCCN)NC(=O)[C@H](Cc2ccccc2-c2cccnc2)NC(=O)[C@@H]2CCCN2[C@H](C(=O)NC(C)(C)C)[C@H](C)NC(=O)[C@H]([C@@H](C)O)NC(=O)[C@H](CC(=O)O)NC1=O [Compound 292] | 7.52 | 
